Assay results published in ChEMBL document CHEMBL4622942, “Design, synthesis and biological evaluation of potent EGFR kinase inhibitors against 19D/T790M/C797S mutation” (Bioorg Med Chem Lett, 2020).
The source made the active and inactive calls. The calls are words filed in the database; no cut-off is given here.

Experiments:
[1] = molecular target: Epidermal growth factor receptor (Homo sapiens, UniProt P00533, C797S/L858R/T790M); assay: Inhibition of EGFR L858R/T790M/C797S mutant (unknown origin) by ELISA
[2] = molecular target: Epidermal growth factor receptor (Homo sapiens, UniProt P00533, C797S/EX19DEL/T790M); assay: Inhibition of EGFR 19D/T790M/C797S mutant (unknown origin) by ELISA
[3] = molecular target: Epidermal growth factor receptor (Homo sapiens, UniProt P00533, L858R/T790M); assay: Inhibition of EGFR L858R/T790M mutant (unknown origin) by ELISA
[4] = molecular target: Epidermal growth factor receptor (Homo sapiens, UniProt P00533); assay: Inhibition of wild type EGFR (unknown origin) by ELISA
BaF3 [5] = assay: Antiproliferative activity against mouse BAF3 cells harboring EGFR 19D/T790M/C797S mutant assessed as reduction in cell viability by CCK8 assay; type: functional, cell-based
BaF3 [6] = assay: Cell cycle arrest in mouse BAF3 cells harboring EGFR 19D/T790M/C797S mutant assessed as accumulation at G1 phase at 1 uM measured after 24 hrs by flow cytometry analysis (reference value: 39.62 %); type: functional
A-431 = assay: Antiproliferative activity against human A431 cells overexpressing EGFR assessed as reduction in cell viability by CCK8 assay; type: functional, cell-based
BaF3 [7] = assay: Cell cycle arrest in mouse BAF3 cells harboring EGFR 19D/T790M/C797S mutant assessed as accumulation at S phase at 1 uM measured after 24 hrs by flow cytometry analysis (reference value: 52.43 %); type: functional
BaF3 [8] = assay: Cell cycle arrest in mouse BAF3 cells harboring EGFR 19D/T790M/C797S mutant assessed as accumulation at G2 phase at 1 uM measured after 24 hrs by flow cytometry analysis (reference value: 7.94 %); type: functional
NCI-H1975 = assay: Antiproliferative activity against human NCI-H1975 cells harboring EGFR L858R/T790M mutant assessed as reduction in cell viability by CCK8 assay; type: functional, cell-based
BaF3 [9] = assay: Induction of apoptosis in mouse BAF3 cells harboring EGFR 19D/T790M/C797S mutant assessed as early apoptotic cells at 1 uM measured after 24 hrs by annexinV-FITC/propidium iodide staining based flow cytometry analysis (reference value: 15.09 %); type: functional
BaF3 [10] = assay: Induction of apoptosis in mouse BAF3 cells harboring EGFR 19D/T790M/C797S mutant assessed as live cells at 10 uM measured after 24 hrs by annexinV-FITC/propidium iodide staining based flow cytometry analysis (reference value: 82.74 %); type: functional
BaF3 [11] = assay: Cell cycle arrest in mouse BAF3 cells harboring EGFR 19D/T790M/C797S mutant assessed as accumulation at S phase at 10 uM measured after 24 hrs by flow cytometry analysis (reference value: 52.43 %); type: functional
BaF3 [12] = assay: Cell cycle arrest in mouse BAF3 cells harboring EGFR 19D/T790M/C797S mutant assessed as accumulation at G1 phase at 20 uM measured after 24 hrs by flow cytometry analysis (reference value: 39.62 %); type: functional
BaF3 [13] = assay: Induction of apoptosis in mouse BAF3 cells harboring EGFR 19D/T790M/C797S mutant assessed as early apoptotic cells at 10 uM measured after 24 hrs by annexinV-FITC/propidium iodide staining based flow cytometry analysis (reference value: 15.09 %); type: functional
BaF3 [14] = assay: Induction of apoptosis in mouse BAF3 cells harboring EGFR 19D/T790M/C797S mutant assessed as live cells at 1 uM measured after 24 hrs by annexinV-FITC/propidium iodide staining based flow cytometry analysis (reference value: 82.74 %); type: functional
[15] = test system: Epidermal growth factor receptor (Homo sapiens), P00533 [UNDEFINED MUTATION]; assay: Inhibition of EGFR 19D/T790M/C797S mutant (unknown origin) expressed in mouse BAF3 cells assessed as reduction in EGF-stimulated Akt phosphorylation at 5 to 100 uM pretreated for 3 hrs followed by EGF stimulation by Western blot analysis; type: cell-based
BaF3 [16] = assay: Induction of apoptosis in mouse BAF3 cells harboring EGFR 19D/T790M/C797S mutant assessed as late apoptotic cells at 10 uM measured after 24 hrs by annexinV-FITC/propidium iodide staining based flow cytometry analysis (reference value: 2.03 %); type: functional
BaF3 [17] = assay: Induction of apoptosis in mouse BAF3 cells harboring EGFR 19D/T790M/C797S mutant measured after 24 hrs by annexinV-FITC/propidium iodide staining based flow cytometry analysis; type: functional, cell-based
BaF3 [18] = assay: Cell cycle arrest in mouse BAF3 cells harboring EGFR 19D/T790M/C797S mutant assessed as accumulation at G2 phase at 10 uM measured after 24 hrs by flow cytometry analysis (reference value: 7.94 %); type: functional
BaF3 [19] = assay: Cell cycle arrest in mouse BAF3 cells harboring EGFR 19D/T790M/C797S mutant assessed as accumulation at G1 phase measured after 24 hrs by flow cytometry analysis; type: functional, cell-based
BaF3 [20] = assay: Cell cycle arrest in mouse BAF3 cells harboring EGFR 19D/T790M/C797S mutant assessed as accumulation at S phase at 20 uM measured after 24 hrs by flow cytometry analysis (reference value: 52.43 %); type: functional
[21] = test system: Epidermal growth factor receptor (Homo sapiens), P00533 [UNDEFINED MUTATION]; assay: Inhibition of EGFR 19D/T790M/C797S mutant (unknown origin) expressed in mouse BAF3 cells assessed as reduction in EGF-stimulated EGFR phosphorylation pretreated for 3 hrs followed by EGF stimulation by Western blot analysis; type: cell-based
BaF3 [22] = assay: Induction of apoptosis in mouse BAF3 cells harboring EGFR 19D/T790M/C797S mutant assessed as late apoptotic cells at 1 uM measured after 24 hrs by annexinV-FITC/propidium iodide staining based flow cytometry analysis (reference value: 2.03 %); type: functional
BaF3 [23] = assay: Induction of apoptosis in mouse BAF3 cells harboring EGFR 19D/T790M/C797S mutant assessed as necrotic cells at 1 uM measured after 24 hrs by annexinV-FITC/propidium iodide staining based flow cytometry analysis (reference value: 0.13 %); type: functional
[24] = Selectivity index, ratio of IC50 for human A431 cells overexpressing EGFR assessed as reduction in cell viability by CCK8 assay to IC50 for mouse BAF3 cells harboring EGFR 19D/T790M/C797S assessed as reduction in cell viability by CCK8 assay; type: functional
BaF3 [25] = assay: Induction of apoptosis in mouse BAF3 cells harboring EGFR 19D/T790M/C797S mutant assessed as early apoptotic cells at 50 uM measured after 24 hrs by annexinV-FITC/propidium iodide staining based flow cytometry analysis (reference value: 15.09 %); type: functional
BaF3 [26] = assay: Induction of apoptosis in mouse BAF3 cells harboring EGFR 19D/T790M/C797S mutant assessed as late apoptotic cells at 50 uM measured after 24 hrs by annexinV-FITC/propidium iodide staining based flow cytometry analysis (reference value: 2.03 %); type: functional
BaF3 [27] = assay: Cell cycle arrest in mouse BAF3 cells harboring EGFR 19D/T790M/C797S mutant assessed as accumulation at G1 phase at 10 uM measured after 24 hrs by flow cytometry analysis (reference value: 39.62 %); type: functional
BaF3 [28] = assay: Induction of apoptosis in mouse BAF3 cells harboring EGFR 19D/T790M/C797S mutant assessed as live cells at 50 uM measured after 24 hrs by annexinV-FITC/propidium iodide staining based flow cytometry analysis (reference value: 82.74 %); type: functional
BaF3 [29] = assay: Cell cycle arrest in mouse BAF3 cells harboring EGFR 19D/T790M/C797S mutant assessed as accumulation at G2 phase at 20 uM measured after 24 hrs by flow cytometry analysis (reference value: 7.94 %); type: functional
[30] = test system: Epidermal growth factor receptor (Homo sapiens), P00533 [UNDEFINED MUTATION]; assay: Inhibition of EGFR 19D/T790M/C797S mutant (unknown origin) expressed in mouse BAF3 cells assessed as reduction in EGF-stimulated ERK phosphorylation pretreated for 3 hrs followed by EGF stimulation by Western blot analysis; type: cell-based
[31] = Selectivity index, ratio of IC50 for human A431 cells overexpressing EGFR assessed as reduction in cell viability by CCK8 assay to IC50 for human NCI-H1975 cells harboring EGFR […]/T790M assessed as reduction in cell viability by CCK8 assay; type: functional
BaF3 [32] = assay: Induction of apoptosis in mouse BAF3 cells harboring EGFR 19D/T790M/C797S mutant assessed as necrotic cells at 50 uM measured after 24 hrs by annexinV-FITC/propidium iodide staining based flow cytometry analysis (reference value: 0.13 %); type: functional
BaF3 [33] = assay: Induction of apoptosis in mouse BAF3 cells harboring EGFR 19D/T790M/C797S mutant assessed as necrotic cells at 10 uM measured after 24 hrs by annexinV-FITC/propidium iodide staining based flow cytometry analysis (reference value: 0.13 %); type: functional

Epidermal growth factor receptor (Homo sapiens, UniProt P00533, L858R/T790M), sequence (P00533 25-1210 T790M/L858R limits assumed): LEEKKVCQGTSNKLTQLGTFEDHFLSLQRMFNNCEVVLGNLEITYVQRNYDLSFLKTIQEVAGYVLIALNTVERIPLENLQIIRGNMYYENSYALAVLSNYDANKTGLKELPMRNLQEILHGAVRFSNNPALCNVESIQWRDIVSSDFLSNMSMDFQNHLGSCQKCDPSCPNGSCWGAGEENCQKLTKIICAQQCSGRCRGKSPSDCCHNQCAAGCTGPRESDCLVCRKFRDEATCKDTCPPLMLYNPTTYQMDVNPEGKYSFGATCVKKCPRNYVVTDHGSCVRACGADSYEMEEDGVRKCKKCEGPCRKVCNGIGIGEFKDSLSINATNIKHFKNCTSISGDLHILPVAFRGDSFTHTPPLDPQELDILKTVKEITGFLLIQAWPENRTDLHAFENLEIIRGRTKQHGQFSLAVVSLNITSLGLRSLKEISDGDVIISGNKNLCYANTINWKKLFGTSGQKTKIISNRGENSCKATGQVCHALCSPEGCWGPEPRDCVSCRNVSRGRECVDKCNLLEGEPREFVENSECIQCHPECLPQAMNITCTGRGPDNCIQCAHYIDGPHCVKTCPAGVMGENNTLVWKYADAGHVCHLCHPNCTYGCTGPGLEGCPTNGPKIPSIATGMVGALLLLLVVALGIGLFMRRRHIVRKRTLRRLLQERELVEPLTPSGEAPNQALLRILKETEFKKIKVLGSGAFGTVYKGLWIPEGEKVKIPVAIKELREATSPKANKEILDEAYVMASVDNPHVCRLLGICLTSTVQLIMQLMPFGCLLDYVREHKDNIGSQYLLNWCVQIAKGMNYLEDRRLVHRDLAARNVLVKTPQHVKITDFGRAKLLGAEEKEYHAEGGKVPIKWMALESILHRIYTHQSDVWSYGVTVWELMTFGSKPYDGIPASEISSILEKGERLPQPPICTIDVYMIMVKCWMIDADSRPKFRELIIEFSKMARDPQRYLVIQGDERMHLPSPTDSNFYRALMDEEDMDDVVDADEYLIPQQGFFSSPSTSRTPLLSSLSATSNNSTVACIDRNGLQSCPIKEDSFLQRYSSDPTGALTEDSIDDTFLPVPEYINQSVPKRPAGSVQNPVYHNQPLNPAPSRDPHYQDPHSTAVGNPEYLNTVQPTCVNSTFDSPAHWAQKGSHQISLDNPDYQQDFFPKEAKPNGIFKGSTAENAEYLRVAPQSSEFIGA
Epidermal growth factor receptor (Homo sapiens, UniProt P00533, C797S/EX19DEL/T790M), sequence (P00533 whole entry, looked up, stated change not applied): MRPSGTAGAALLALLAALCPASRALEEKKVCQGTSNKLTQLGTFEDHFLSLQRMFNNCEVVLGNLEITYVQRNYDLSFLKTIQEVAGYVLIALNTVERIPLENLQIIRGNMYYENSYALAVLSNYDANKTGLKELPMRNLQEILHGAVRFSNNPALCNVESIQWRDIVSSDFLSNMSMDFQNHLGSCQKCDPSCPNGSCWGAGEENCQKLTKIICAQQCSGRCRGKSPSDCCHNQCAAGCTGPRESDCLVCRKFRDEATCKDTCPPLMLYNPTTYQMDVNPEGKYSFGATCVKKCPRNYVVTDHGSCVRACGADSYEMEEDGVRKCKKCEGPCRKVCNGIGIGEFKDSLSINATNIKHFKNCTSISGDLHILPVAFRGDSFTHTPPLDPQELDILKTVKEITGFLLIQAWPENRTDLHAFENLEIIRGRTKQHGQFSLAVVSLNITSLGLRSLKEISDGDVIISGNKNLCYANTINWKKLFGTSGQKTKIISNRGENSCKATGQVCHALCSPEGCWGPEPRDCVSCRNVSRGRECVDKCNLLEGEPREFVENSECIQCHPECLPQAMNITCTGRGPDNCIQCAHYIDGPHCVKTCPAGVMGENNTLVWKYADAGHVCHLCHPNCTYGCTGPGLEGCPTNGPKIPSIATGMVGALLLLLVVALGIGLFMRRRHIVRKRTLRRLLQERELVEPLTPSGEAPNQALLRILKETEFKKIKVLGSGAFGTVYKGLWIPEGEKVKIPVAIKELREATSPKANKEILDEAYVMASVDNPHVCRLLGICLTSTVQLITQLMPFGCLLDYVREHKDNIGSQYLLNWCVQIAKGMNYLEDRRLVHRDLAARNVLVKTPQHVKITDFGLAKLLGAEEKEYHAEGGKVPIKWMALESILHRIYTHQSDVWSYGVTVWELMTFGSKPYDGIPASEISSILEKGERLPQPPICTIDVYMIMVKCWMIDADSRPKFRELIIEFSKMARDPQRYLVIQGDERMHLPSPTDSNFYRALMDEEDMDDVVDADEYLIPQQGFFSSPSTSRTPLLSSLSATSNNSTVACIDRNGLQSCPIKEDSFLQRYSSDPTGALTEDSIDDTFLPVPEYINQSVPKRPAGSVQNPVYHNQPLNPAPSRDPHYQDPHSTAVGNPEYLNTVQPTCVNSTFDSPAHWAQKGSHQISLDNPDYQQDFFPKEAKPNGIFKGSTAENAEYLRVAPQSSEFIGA
Epidermal growth factor receptor (Homo sapiens, UniProt P00533), sequence (P00533 whole entry): as the sequence (P00533 whole entry, looked up, stated change not applied) above
Epidermal growth factor receptor (Homo sapiens), P00533 [UNDEFINED MUTATION], sequence (P00533 whole entry, looked up, stated change not applied): as above

## CCC(=O)Nc1cc(Nc2nccc(-c3cn(CCCO)c4ccccc34)n2)c(OC)cc1F
[1]
  IC50: 422 nM
[2]
  IC50: 72.5 nM
[3]
  IC50: 127 nM
[4]
  IC50: > 1000 nM

## CCC(=O)Nc1cc(Nc2nccc(-c3cn(CCO)c4ccccc34)n2)c(OC)cc1F
[1]
  IC50: > 1000 nM
[2]
  IC50: 80.5 nM
[3]
  IC50: 170 nM
[4]
  IC50: > 1000 nM

## C=CC(=O)Nc1cc(Nc2nccc(-c3cn(CCCO)c4ccccc34)n2)c(OC)cc1F
[1]
  IC50: > 1000 nM
[2]
  IC50: 17.9 nM
[3]
  IC50: 2.2 nM
[4]
  IC50: 283 nM

## CCC(=O)Nc1cc(Nc2nccc(-c3cn(CCCO)c4ccc(F)cc34)n2)c(OC)cc1F
[1]
  IC50: 332 nM
[2]
  IC50: 40.4 nM
[3]
  IC50: 142 nM
[4]
  IC50: > 1000 nM

## C=CC(=O)Nc1cc(Nc2nccc(-c3cn(C)c4ccccc34)n2)c(OC)cc1N(C)CCN(C)C [OSIMERTINIB]
BaF3 [5]
  IC50: 5470 nM
BaF3 [6]
  Activity: 45.49%
A-431
  IC50: […]
BaF3 [7]
  Activity: 45.58%
BaF3 [8]
  Activity: 8.93%
NCI-H1975
  IC50: […]

## COc1cc(N(C)CCN(C)C)ccc1Nc1nccc(-c2cn(CCCO)c3ccccc23)n1
BaF3 [9]
  Activity: 17%
[1]
  IC50: 218 nM
BaF3 [5]
  IC50: 8510 nM
BaF3 [6]
  Activity: 48%
BaF3 [10]
  Activity: 60.89%
BaF3 [11]
  Activity: 37.81%
BaF3 [12]
  Activity: 53.37%
[2]
  IC50: 15.3 nM
BaF3 [13]
  Activity: 24.18%
BaF3 [14]
  Activity: 80.07%
[15]
  inhibition: Active
[3]
  IC50: 157 nM
BaF3 [16]
  Activity: 14.53%
BaF3 [17]
  Activity: Dose-dependent effect
BaF3 [18]
  Activity: 10.25%
BaF3 [19]
  Activity: Dose-dependent effect
BaF3 [20]
  Activity: 26.61%
[21]
  inhibition: Dose-dependent effect
BaF3 [22]
  Activity: 2.74%
BaF3 [23]
  Activity: 0.19%
[4]
  IC50: > 1000 nM
A-431
  IC50: 20500 nM
[24]
  Ratio IC50: 2.41
BaF3 [25]
  Activity: 74.01%
BaF3 [7]
  Activity: 40.51%
BaF3 [26]
  Activity: 23.81%
BaF3 [27]
  Activity: 51.94%
BaF3 [28]
  Activity: 1.76%
BaF3 [29]
  Activity: 10.02%
[30]
  inhibition: Dose-dependent effect
BaF3 [8]
  Activity: 10.52%
[31]
  Ratio IC50: 1.27
BaF3 [32]
  Activity: 0.42%
BaF3 [33]
  Activity: 0.4%
NCI-H1975
  IC50: 16200 nM

## CCC(=O)Nc1cc(Nc2nccc(-c3c[nH]c4c(CCO)cccc34)n2)c(OC)cc1F
[1]
  IC50: > 1000 nM
[2]
  IC50: 663 nM
[3]
  IC50: 208 nM
[4]
  IC50: > 1000 nM

## CCC(=O)Nc1cc(Nc2nccc(-c3cn(CCCO)c4ccccc34)n2)c(OC)cc1N(C)CCN(C)C
[1]
  IC50: 638 nM
[2]
  IC50: 73 nM
[3]
  IC50: 169 nM
[4]
  IC50: > 1000 nM
